From patent US10590113B2, “6-hydroxy-4-oxo-1,4-dihydropyrimidine-5-carboxamides as APJ agonists” (priority 2016, dated 2020)
Where two headings read alike, the source gives them in different places.

Target: T1, human APJ receptor (Homo sapiens, UniProt P35414)
T1 construct: expressed in transfected cells; host or cells: HEK293
T1 sequence (P35414 1-380): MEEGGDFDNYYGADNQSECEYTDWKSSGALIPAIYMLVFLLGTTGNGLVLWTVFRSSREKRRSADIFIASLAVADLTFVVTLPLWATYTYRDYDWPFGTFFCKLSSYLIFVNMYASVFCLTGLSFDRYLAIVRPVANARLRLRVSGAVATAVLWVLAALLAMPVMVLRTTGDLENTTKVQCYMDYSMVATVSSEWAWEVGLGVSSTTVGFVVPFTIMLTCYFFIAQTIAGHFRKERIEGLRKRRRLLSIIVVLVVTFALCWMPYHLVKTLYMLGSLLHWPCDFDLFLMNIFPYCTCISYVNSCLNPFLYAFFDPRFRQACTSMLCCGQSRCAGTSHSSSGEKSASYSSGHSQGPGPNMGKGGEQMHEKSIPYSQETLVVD
Experiment: Intracellular cAMP Accumulation Assay (APJ hcAMP, HTRF)
Type: cell-based
Details: read-out: hAPJ cAMP EC50 Potency range
Procedure: Intracellular cAMP Accumulation Assay
HEK293 cells stably expressing human APJ receptor were used to assess the activity of compounds. Cultured cells were detached and resuspended in the cAMP
Homogeneous Time-Resolved Fluorescence (HTRF) assay buffer (Cisbio cat; #62AM4PEJ). The assay was performed in 384-well assay plates (Perkin-Elmer; cat #6008289) according to assay protocol provided by the manufacturer. Serial dilutions of a compound together with assay buffer containing […] IBMX and 2 μM forskolin were added to each well containing 5,000 cells and incubated for 30 minutes at room temperature. Subsequently, cAMP D2 reagent was added in the lysis buffer followed by the EuK antibody (Cisbio; cat #62AM4PEJ) and incubated for 60 min. The fluorescence emission ratio was measured using fluorometer. The intracellular cAMP concentrations (compound-stimulated inhibition of forskolin-mediated cAMP production) were calculated by extrapolation from a standard curve using known cAMP concentrations. The EC50 values were obtained by fitting the data to a sigmoidal concentration-response curve with variable slope.
The EC50 value of each compound is presented at the end of the example description.
The biological activity of the exemplified compounds of this invention determined by the assay described above is shown at the end of each example.

[1] = human APJ, intracellular cAMP accumulation
[2] = human APJ, cAMP accumulation, potency range class

SMILES	EC50 [1]	EC50 [2]	also measured
CCCCc1nc(=O)c(C(=O)N2CCC(c3ncc(F)cc3F)C2)c(O)n1[C@H](c1cccc(C#N)c1)C1CC1 (stereo partly drawn) [Example 351, 3-[(S)-{2-butyl-5-[3-(3,5-difluoropyridin-2-yl)pyrrolidine-1-carbonyl]-4-hydroxy-6-oxo-1,6-dihydropyrimidin-1-yl}(cyclopropyl)methyl]benzonitrile]		0.01 to 10 nM	
COc1cccc(OC)c1-n1c(COC(C)(C)C)nc(=O)c(C(=O)N2CCC(c3ccccc3F)C2)c1O (single isomer, unassigned) [Example 50, 2-[(tert-butoxy)methyl]-1-(2,6-dimethoxyphenyl)-5-[3-(2-fluorophenyl)pyrrolidine-1-carbonyl]-6-hydroxy-1,4-dihydropyrimidin-4-one]	0.01 to 10 nM		
CCCCc1nc(=O)c(C(=O)N2CCC(c3ccc(F)cn3)C2)c(O)n1-c1c(OC)cccc1OC (single isomer, unassigned) [Example 370, 2-butyl-1-(2,6-dimethoxyphenyl)-5-(3-(5-fluoropyridin-2-yl)pyrrolidine-1-carbonyl)-6-hydroxypyrimidin-4(1H)-one]			EC50: 0.01 to 10 nM
CCc1cccc(CC)c1-n1c(-c2ccn(C(C)C)n2)nc(=O)c(C(=O)N2CCC(c3ccccc3F)C2)c1O (single isomer, unassigned) [Example 295, 1-(2,6-diethylphenyl)-5-[3-(2-fluorophenyl)pyrrolidine-1-carbonyl]-6-hydroxy-2-[1-(propan-2-yl)-1H-pyrazol-3-yl]-1,4-dihydropyrimidin-4-one]		0.01 to 10 nM	

Now from value to compound, other results behind:

EC50 [1]	EC50 [2]	SMILES	also measured
0.01 to 10 nM		CCCCc1nc(=O)c(C(=O)N2CC[C@@H](c3ccccc3)C2)c(O)n1[C@@H](C)c1cccc(OC)c1 [Example 120, 2-butyl-6-hydroxy-3-[(1S)-1-(3-methoxyphenyl)ethyl]-5-[(3S)-3-phenylpyrrolidine-1-carbonyl]-3,4-dihydropyrimidin-4-one]	
	0.01 to 10 nM	CCn1ccc(-c2nc(=O)c(C(=O)N3CCC(c4ncc(F)cc4F)C3)c(O)n2-c2cccc(C(C)C)c2)n1 (single isomer, unassigned) [Example 293, 5-[3-(3,5-difluoropyridin-2-yl)pyrrolidine-1-carbonyl]-2-(1-ethyl-1H-pyrazol-3-yl)-6-hydroxy-1-[3-(propan-2-yl)phenyl]-1,4-dihydropyrimidin-4-one]	
0.01 to 10 nM		COc1cccc(OC)c1-n1c(COC2CC2)nc(=O)c(C(=O)N2CCC(c3ccccc3F)C2)c1O (single isomer, unassigned) [Example 10, 2-(cyclopropoxymethyl)-1-(2,6-dimethoxyphenyl)-5-(3-(2-fluorophenyl)pyrrolidine-1-carbonyl)-6-hydroxypyrimidin-4(1H)-one]	
0.01 to 10 nM		COc1cccc(OC)c1-n1c(COC(C)C)nc(=O)c(C(=O)N2CCC(c3ccccc3C#N)C2)c1O (single isomer, unassigned) [Example 165, 2-{1-[1-(2,6-dimethoxyphenyl)-6-hydroxy-4-oxo-2-[(propan-2-yloxy)methyl]-1,4-dihydropyrimidine-5-carbonyl]pyrrolidin-3-yl}benzonitrile]	
	0.01 to 10 nM	CCc1cccc(CC)c1-n1c(-c2nc(C)cs2)nc(=O)c(C(=O)N2CCC(c3ncccc3F)C2)c1O (single isomer, unassigned) [Example 307, 1-(2,6-diethylphenyl)-5-[3-(3-fluoropyridin-2-yl)pyrrolidine-1-carbonyl]-6-hydroxy-2-(4-methyl-1,3-thiazol-2-yl)-1,4-dihydropyrimidin-4-one]	
0.01 to 10 nM		COc1cccc(OC)c1-n1c(COC2CC2)nc(=O)c(C(=O)N2CCC(c3ccc(F)cc3)C2)c1O (single isomer, unassigned) [Example 100, 2-(cyclopropoxymethyl)-1-(2,6-dimethoxyphenyl)-5-[3-(4-fluorophenyl)pyrrolidine-1-carbonyl]-6-hydroxy-1,4-dihydropyrimidin-4-one]	
